Test results taken from the NIST ThermoML archive (doi:10.1016/j.jct.2006.05.008).
± gives the expanded uncertainty stated by the source.

Test: molar heat capacity at constant pressure
Details: 101.33 kPa

CCn1cc[n+](C)c1.[Br-] [1-ethyl-3-methylimidazolium bromide]
molar heat capacity at constant pressure [J/K/mol], Small (less than 1 g) adiabatic calorimetry
Details	Crystal	Liquid
5 K	0.322 ± 0.028	–
10 K	3.336 ± 0.076	–
15 K	9.171 ± 0.15	–
20 K	16.81 ± 0.22	–
25 K	25 ± 0.27	–
30 K	33.08 ± 0.27	–
35 K	40.68 ± 0.31	–
40 K	47.53 ± 0.34	–
45 K	53.77 ± 0.37	–
50 K	59.49 ± 0.4	–
60 K	69.57 ± 0.45	–
70 K	78.03 ± 0.49	–
80 K	85.47 ± 0.5	–
80.24 K	85.68 ± 0.53	–
83.06 K	87.67 ± 0.54	–
85.79 K	89.36 ± 0.55	–
88.55 K	91.21 ± 0.56	–
90 K	92.12 ± 0.58	–
91.34 K	93.01 ± 0.57	–
94.15 K	94.8 ± 0.58	–
96.98 K	96.52 ± 0.59	–
99.83 K	98.18 ± 0.59	–
100 K	98.11 ± 0.58	–
102.69 K	99.88 ± 0.57	–
105.57 K	101.51 ± 0.61	–
108.46 K	103.1 ± 0.61	–
110 K	103.8 ± 0.58	–
111.37 K	104.69 ± 0.62	–
114.29 K	106.29 ± 0.62	–
117.22 K	107.83 ± 0.63	–
120 K	109.1 ± 0.67	–
120.16 K	109.35 ± 0.64	–
123.11 K	110.89 ± 0.64	–
126.08 K	112.42 ± 0.65	–
129.06 K	113.89 ± 0.66	–
130 K	114.2 ± 0.67	–
132.03 K	115.39 ± 0.66	–
135.01 K	116.87 ± 0.67	–
138 K	118.34 ± 0.67	–
140 K	119.1 ± 0.67	–
140.99 K	119.85 ± 0.68	–
143.99 K	121.33 ± 0.69	–
146.99 K	122.81 ± 0.69	–
149.99 K	124.27 ± 0.7	–
150 K	124.1 ± 0.67	–
152.99 K	125.74 ± 0.7	–
156 K	127.17 ± 0.71	–
159 K	128.63 ± 0.71	–
160 K	128.9 ± 0.75	–
162.08 K	130.18 ± 0.72	–
165.15 K	131.64 ± 0.73	–
168.15 K	133.08 ± 0.73	–
170 K	133.7 ± 0.75	–
171.16 K	134.55 ± 0.74	–
174.16 K	136.01 ± 0.74	–
177.16 K	137.5 ± 0.75	–
180 K	138.6 ± 0.75	–
180.15 K	138.89 ± 0.75	–
183.15 K	140.38 ± 0.76	–
186.14 K	141.85 ± 0.77	–
189.13 K	143.32 ± 0.77	–
190 K	143.6 ± 0.75	–
192.12 K	144.81 ± 0.78	–
195.1 K	146.31 ± 0.79	–
198.07 K	147.84 ± 0.79	–
200 K	148.7 ± 0.83	–
201.05 K	149.45 ± 0.8	–
204.01 K	151.13 ± 0.8	–
206.98 K	152.7 ± 0.81	–
209.94 K	154.27 ± 0.82	–
210 K	153.9 ± 0.83	–
212.9 K	155.83 ± 0.82	–
215.85 K	157.4 ± 0.83	–
218.78 K	158.98 ± 0.84	–
220 K	159.2 ± 0.83	–
221.71 K	160.52 ± 0.84	–
224.63 K	162.13 ± 0.85	–
227.55 K	163.72 ± 0.85	–
230 K	164.7 ± 0.83	–
230.45 K	165.37 ± 0.86	–
233.35 K	166.97 ± 0.87	–
236.24 K	168.5 ± 0.87	–
239.13 K	170.14 ± 0.88	–
240 K	170.4 ± 0.92	–
242 K	171.88 ± 0.89	–
244.87 K	173.49 ± 0.89	–
247.74 K	175.15 ± 0.9	–
250 K	176.2 ± 0.92	–
250.59 K	176.83 ± 0.91	–
253.44 K	178.51 ± 0.91	–
256.25 K	180.2 ± 0.92	–
259.07 K	181.98 ± 0.93	–
260 K	182.2 ± 0.92	–
261.87 K	183.73 ± 0.93	–
264.68 K	185.47 ± 0.94	–
267.47 K	187.2 ± 0.95	–
270 K	188.3 ± 0.92	–
270.26 K	188.95 ± 0.96	–
273.03 K	190.7 ± 0.96	–
275.79 K	192.52 ± 0.97	–
278.53 K	194.49 ± 0.97	–
280 K	195.1 ± 1	–
281.26 K	196.34 ± 0.99	–
283.96 K	198.2 ± 0.99	–
286.66 K	199.93 ± 0.99	–
289.36 K	201.96 ± 1	–
290 K	202 ± 1	–
292.03 K	203.78 ± 1	–
294.7 K	205.78 ± 1	–
297.36 K	207.81 ± 1	–
298.15 K	207.5 ± 1	–
299.92 K	209.77 ± 1	–
300 K	208.8 ± 1	–
310 K	215.7 ± 1.1	–
320 K	222.5 ± 1.1	–
330 K	229.4 ± 1.1	–
340 K	236.3 ± 1.2	–
347.66 K	–	265.34 ± 1.3
349.92 K	243.1 ± 1.2	264.8 ± 1.2
350 K	–	264.8 ± 1.2
350.15 K	–	266.1 ± 1.3
352.61 K	–	266.89 ± 1.3
353.91 K	–	267.52 ± 1.3
355.07 K	–	267.71 ± 1.3
357.53 K	–	268.53 ± 1.3
359.99 K	–	269.33 ± 1.3
360 K	–	268.6 ± 1.2
361.35 K	–	270.21 ± 1.3
362.45 K	–	270.78 ± 1.3
364.95 K	–	271.95 ± 1.3
366.81 K	–	270.88 ± 1.3
367.5 K	–	272.58 ± 1.3
370 K	–	272.4 ± 1.3

Crystal
Details	molar heat capacity at constant pressure [J/K/mol]
5.194 K	0.3611 ± 0.053
5.579 K	0.4605 ± 0.057
5.885 K	0.5503 ± 0.059
6.228 K	0.6668 ± 0.063
6.606 K	0.8178 ± 0.069
6.985 K	0.9897 ± 0.075
7.365 K	1.183 ± 0.076
7.747 K	1.406 ± 0.088
8.13 K	1.655 ± 0.096
8.515 K	1.937 ± 0.11
8.9 K	2.249 ± 0.12
9.286 K	2.597 ± 0.13
9.673 K	2.979 ± 0.14
10.06 K	3.401 ± 0.15
10.55 K	3.999 ± 0.17
11.14 K	4.807 ± 0.19
11.73 K	5.74 ± 0.22
12.32 K	6.81 ± 0.25
12.91 K	7.996 ± 0.28
13.54 K	8.107 ± 0.28
14.21 K	8.109 ± 0.27
14.85 K	8.978 ± 0.29
15.58 K	10.01 ± 0.32
16.41 K	11.22 ± 0.34
17.25 K	12.49 ± 0.37
18.08 K	13.77 ± 0.39
18.92 K	15.08 ± 0.42
19.75 K	16.41 ± 0.44
20.88 K	18.28 ± 0.47
22.31 K	20.62 ± 0.5
23.74 K	22.98 ± 0.52
25.17 K	25.34 ± 0.54
26.6 K	27.65 ± 0.56
28.05 K	30.01 ± 0.57
29.5 K	32.33 ± 0.57
30.94 K	34.65 ± 0.55
32.4 K	36.88 ± 0.57
33.85 K	39.07 ± 0.59
35.31 K	41.18 ± 0.61
36.76 K	43.24 ± 0.63
38.22 K	45.23 ± 0.65
39.68 K	47.2 ± 0.67
41.38 K	49.4 ± 0.69
43.34 K	51.87 ± 0.72
45.31 K	54.3 ± 0.74
47.28 K	56.63 ± 0.77
49.24 K	58.85 ± 0.79
51.21 K	60.97 ± 0.81
53.18 K	63 ± 0.83
55.14 K	65 ± 0.85
57.11 K	66.93 ± 0.87
59.08 K	68.82 ± 0.89
61.05 K	70.7 ± 0.91
63.03 K	72.54 ± 0.92
65 K	74.25 ± 0.94
66.98 K	75.86 ± 0.96
68.96 K	77.42 ± 0.97
70.95 K	78.97 ± 0.99
72.93 K	80.48 ± 1
74.92 K	82.06 ± 1
76.91 K	83.6 ± 1
78.9 K	85.15 ± 1.1
80.9 K	86.6 ± 1.1
82.91 K	87.82 ± 1.1
